According to ChEMBL document CHEMBL1909046, “DrugMatrix in vitro pharmacology data”:
pIC50, pKi: −log10 of the molar value.

Assays:
[1] = target: T1, Cytochrome P450 1A2 (Homo sapiens, UniProt P05177)
T1 sequence (P05177 whole entry): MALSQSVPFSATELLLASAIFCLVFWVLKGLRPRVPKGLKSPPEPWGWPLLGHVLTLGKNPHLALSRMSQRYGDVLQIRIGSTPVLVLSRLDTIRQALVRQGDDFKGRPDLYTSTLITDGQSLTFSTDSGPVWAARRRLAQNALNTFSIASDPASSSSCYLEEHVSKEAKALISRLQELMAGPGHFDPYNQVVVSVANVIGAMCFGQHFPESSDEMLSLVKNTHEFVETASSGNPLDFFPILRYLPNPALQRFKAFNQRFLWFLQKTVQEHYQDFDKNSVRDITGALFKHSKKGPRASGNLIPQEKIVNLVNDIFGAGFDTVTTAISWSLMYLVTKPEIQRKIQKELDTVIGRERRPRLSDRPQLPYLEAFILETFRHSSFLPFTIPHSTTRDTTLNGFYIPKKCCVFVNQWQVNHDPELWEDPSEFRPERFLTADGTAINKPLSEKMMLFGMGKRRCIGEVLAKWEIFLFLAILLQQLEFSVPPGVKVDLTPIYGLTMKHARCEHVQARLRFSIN

[2] = target: Cytochrome P450 2C19 (Homo sapiens, UniProt P33261)
[3] = target: T2, Glucocorticoid receptor (Homo sapiens, UniProt P04150); experiment: biochemical
T2 sequence (P04150 whole entry): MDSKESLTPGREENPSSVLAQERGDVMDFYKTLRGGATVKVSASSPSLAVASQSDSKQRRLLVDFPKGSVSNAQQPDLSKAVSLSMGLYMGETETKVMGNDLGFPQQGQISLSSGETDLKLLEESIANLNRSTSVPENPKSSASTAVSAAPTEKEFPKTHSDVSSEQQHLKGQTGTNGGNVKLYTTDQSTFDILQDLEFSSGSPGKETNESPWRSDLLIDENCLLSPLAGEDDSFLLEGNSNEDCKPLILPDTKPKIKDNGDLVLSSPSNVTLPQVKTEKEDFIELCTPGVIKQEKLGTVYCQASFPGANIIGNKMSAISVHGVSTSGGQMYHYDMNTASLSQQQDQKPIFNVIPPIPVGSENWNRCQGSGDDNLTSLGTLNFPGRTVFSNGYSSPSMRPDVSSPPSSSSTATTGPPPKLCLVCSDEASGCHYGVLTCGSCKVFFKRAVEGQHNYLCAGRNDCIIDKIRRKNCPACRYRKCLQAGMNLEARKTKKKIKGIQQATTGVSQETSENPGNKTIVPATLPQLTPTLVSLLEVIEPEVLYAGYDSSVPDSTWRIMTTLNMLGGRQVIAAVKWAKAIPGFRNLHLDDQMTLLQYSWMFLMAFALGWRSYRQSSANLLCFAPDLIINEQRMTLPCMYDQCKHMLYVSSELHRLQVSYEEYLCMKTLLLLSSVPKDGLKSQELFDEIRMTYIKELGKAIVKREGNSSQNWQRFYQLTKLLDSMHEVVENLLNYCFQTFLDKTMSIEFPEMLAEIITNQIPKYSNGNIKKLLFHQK

[4] = target: T3, Androgen receptor (Rattus norvegicus, UniProt P15207)
T3 sequence (P15207 whole entry): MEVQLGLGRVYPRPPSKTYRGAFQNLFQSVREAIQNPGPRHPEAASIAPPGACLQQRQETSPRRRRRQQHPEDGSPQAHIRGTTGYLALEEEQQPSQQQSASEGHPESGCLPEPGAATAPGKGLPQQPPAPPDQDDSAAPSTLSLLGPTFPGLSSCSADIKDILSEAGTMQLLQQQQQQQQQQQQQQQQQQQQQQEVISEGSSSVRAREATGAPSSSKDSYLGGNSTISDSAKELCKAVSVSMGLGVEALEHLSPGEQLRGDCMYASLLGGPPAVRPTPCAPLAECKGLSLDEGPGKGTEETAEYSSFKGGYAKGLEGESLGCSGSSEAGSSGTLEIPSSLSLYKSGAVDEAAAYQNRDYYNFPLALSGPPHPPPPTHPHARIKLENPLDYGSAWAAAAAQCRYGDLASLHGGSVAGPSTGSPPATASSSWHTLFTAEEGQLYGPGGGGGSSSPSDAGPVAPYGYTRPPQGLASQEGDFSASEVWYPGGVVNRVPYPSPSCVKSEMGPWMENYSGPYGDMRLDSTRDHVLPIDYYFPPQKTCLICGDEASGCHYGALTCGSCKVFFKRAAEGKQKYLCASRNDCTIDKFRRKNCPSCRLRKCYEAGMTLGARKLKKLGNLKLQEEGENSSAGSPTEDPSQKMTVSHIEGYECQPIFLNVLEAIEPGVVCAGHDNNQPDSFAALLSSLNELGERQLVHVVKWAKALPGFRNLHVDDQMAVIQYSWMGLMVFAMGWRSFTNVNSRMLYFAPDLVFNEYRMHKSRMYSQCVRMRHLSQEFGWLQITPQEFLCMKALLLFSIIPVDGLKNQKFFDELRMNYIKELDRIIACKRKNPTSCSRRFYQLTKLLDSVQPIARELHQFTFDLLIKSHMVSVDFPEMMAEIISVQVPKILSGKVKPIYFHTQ

[5] = target: Cytochrome P450 3A4 (Homo sapiens, UniProt P08684)
Chain of Cytochrome P450 3A4 (P08684 whole entry): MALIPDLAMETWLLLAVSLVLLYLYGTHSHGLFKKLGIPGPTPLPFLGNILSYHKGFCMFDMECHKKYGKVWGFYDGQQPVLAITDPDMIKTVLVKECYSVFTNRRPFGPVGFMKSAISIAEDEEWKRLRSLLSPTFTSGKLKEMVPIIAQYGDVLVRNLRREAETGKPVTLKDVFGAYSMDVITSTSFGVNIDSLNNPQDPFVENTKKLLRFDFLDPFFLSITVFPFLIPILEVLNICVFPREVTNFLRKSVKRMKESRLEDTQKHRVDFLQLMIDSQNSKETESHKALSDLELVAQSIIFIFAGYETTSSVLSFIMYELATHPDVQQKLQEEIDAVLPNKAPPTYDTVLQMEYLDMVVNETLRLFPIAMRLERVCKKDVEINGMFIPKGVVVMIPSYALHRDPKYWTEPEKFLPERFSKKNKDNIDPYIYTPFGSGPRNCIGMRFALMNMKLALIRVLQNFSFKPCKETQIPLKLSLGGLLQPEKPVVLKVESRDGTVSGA

Chain of Cytochrome P450 2C19 (P33261 whole entry): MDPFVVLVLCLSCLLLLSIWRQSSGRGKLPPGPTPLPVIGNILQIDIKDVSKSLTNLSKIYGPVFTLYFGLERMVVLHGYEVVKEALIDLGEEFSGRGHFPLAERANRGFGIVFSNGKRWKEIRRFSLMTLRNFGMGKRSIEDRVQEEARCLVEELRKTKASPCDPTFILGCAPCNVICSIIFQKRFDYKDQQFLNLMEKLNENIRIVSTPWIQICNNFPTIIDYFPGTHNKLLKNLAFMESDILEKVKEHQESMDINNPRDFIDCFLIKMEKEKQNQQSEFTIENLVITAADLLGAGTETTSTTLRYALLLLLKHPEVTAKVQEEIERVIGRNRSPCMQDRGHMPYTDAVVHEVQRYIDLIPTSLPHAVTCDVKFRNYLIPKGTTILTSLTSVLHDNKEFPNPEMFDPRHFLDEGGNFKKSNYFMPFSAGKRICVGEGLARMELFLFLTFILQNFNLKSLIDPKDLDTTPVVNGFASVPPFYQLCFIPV

## Cc1ccc2cc3c(ccc4ccccc43)c3c2c1CC3 [3-METHYLCHOLANTHRENE]
[1]
  pIC50: 6.52

## CC(NC(C)(C)C)C(=O)c1cccc(Cl)c1 (centres undefined) [BUPROPION]
[2]
  pIC50: 5.70

## C[C@]12CCC(=O)C=C1CC[C@@H]1[C@@H]2CC[C@@]2(C)[C@H]1CC[C@]2(C)O [METHYLTESTOSTERONE]
[3]
  pIC50: 5.73
  pKi: 6.08

## CC(C)[C@@]1(NC(=O)[C@@H]2C[C@@H]3c4cccc5[nH]cc(c45)C[C@H]3N(C)C2)O[C@@]2(O)[C@@H]3CCCN3C(=O)[C@H](Cc3ccccc3)N2C1=O.CS(=O)(=O)O [DIHYDROERGOCRISTINE MESYLATE]
[2]
  pIC50: 5.52

## c1ccc2c(c1)c1cccc3ccc4cccc2c4c31 [BENZO[E]PYRENE]
[1]
  pIC50: 7.00

## C[C@]12CC[C@@H]3c4ccc(O)cc4CC[C@H]3[C@@H]1CCC2=O [ESTRONE]
[4]
  pIC50: 4.93
  pKi: 5.11

## CC(C)[C@H]1C(=O)N2CCC[C@H]2[C@]2(O)O[C@](NC(=O)[C@@H]3C=C4c5cccc6[nH]cc(c56)C[C@H]4N(C)C3)(C(C)C)C(=O)N12 [ERGOCORNINE]
[5]
  pIC50: 6.30
